Consider two molecules from patent US11033568B2, “Nicotinamide riboside compositions for topical use in treating skin conditions” (ChromaDex Inc., priority 2013, dated 2021).

The conditions of data set [1]: cited from earlier work.
A further data set relates to A431 cell line. Put plainly: UV-C damage assay, cyclobutane pyrimidine dimer (CPD) ELISA. The format is cell-based, human. The settings on record: for cyclobutane pyrimidine dimer (CPD) level vs. control: 2 h pre-treatment, 10 J/m^2 UVC. How it is done: The A431 cell line was seeded in 6-wells plate at a seeding density of 4×10^5 cells/well in 2 ml of culture media containing 10% FBS. The cells were left untreated as a control or treated with different concentrations of NR chloride in the media (5 mM and 1 mM) for 2 h under a fully humidified atmosphere containing 5% CO2 at 37° C. After incubation, culture media was replaced by PBS and cells were exposed to 10 J/m^2 UVC irradiation. Plates were harvested along with respective controls immediately after UVC exposure (Negative Control was cells without UV-C exposure while Positive Control was untreated Cells with UV-C exposure). DNA from cells in each condition was extracted and quantified by NanoDrop. DNA samples were then added in the ELISA plate at 100 ng/well conc. and amount of cyclobutane pyrimidine dimer (CPD) was estimated in the DNA samples using CPD-DNA estimation kits (OxiSelect™, Cell Biolabs, Inc., San Diego, USA) as per manufacturer's protocol.
(In general: An ELISA detects its analyte on a solid surface through an enzyme-linked reagent.)

In data set [2] the test system is A431 human epidermoid cells. The experiment in a line: Oxidative damage protection assay (1 mM H2O2, alamar blue cell viability). The format is cell-based. The settings on record: for percent cytoprotection: 1 mM H2O2, vs positive (H2O2) control. How it is done:
A431 human epidermoid cells (ATCC #CRL1555) were grown in DMEM media supplemented with 10% FBS and 1% PenStrep in T75 flasks based on culture recommendations. The media was replaced every two-three days till >80% confluency was attained. The cells were trypsinized with 0.25% trypsin EDTA solution for 2-3 minutes until the cells were dislodged. The cells were sub-cultured in a ratio of 1:3 for further growth and scale-up for the assay. The cells were trypsinized and counted to a density of 5,000 or 15,000 cells and seeded in […], media/well in 96-well clear bottom black plates. The outer wells at the periphery of the plates were left unseeded and were instead filled with media to reduce the edge effect during incubation. The plates were incubated overnight in a humidified incubator at 37° C./5% CO2 to confirm that the cells were attached. The Nicotinamide Riboside chloride (NR chloride) was added at indicated final assay concentrations in the media either under pre-treatment for 24 h (without hydrogen peroxide) or along with 1 mM hydrogen peroxide for an incubation of 20 h in a humidified incubator at 37° C./5% CO2 either with media replenishment at 8 h or under growth synchronized conditions using 1% FBS. Each concentration was tested in 6 replicates. Appropriate controls: cells without compound and hydrogen peroxide (no cytotoxicity; negative control), cells without compound but in the presence of 1 mM hydrogen peroxide (positive control), wells with alamar blue alone (blank) were kept in each assay. Cell viability was graphed and data was represented as percent cytotoxicity for 1 mM H2O2 under a given assay condition with respect to negative (untreated control) cells or percent cytoprotection in the presence of the test compound calculated with respect to positive (1 mM H2O2) control.
For orientation: The colour change of resazurin is a common sign of viable cells or microbes.

The subject of another data set is NIH 3T3 fibroblasts. The experiment in a line: Scratch wound healing assay (CytoSelect Wound Healing Assay Kit). The format is cell-based, mouse. How it is done: NIH 3T3 fibroblasts were obtained from […]) and cultured in Dulbecco's modified Eagle's medium (DMEM) supplemented with 10% fetal bovine serum (FBS), 4 mM L-glutamine, 1% penicillin/streptomycin under a fully humidified atmosphere containing 5% CO2 at 37° C. For experiments, cells were collected from subconfluent monolayers with trypsin/EDTA. Cell viability was higher as 95% using trypan blue dye exclusion staining. The study was carried out using cells from passages 4-7 in DMEM medium containing 1% FBS. Untreated cells (1% FBS) were used as negative controls. The effect of nicotinamide riboside chloride (NR chloride) on wound closure in NIH 3T3 fibroblasts was investigated. Cell viability was determined by cell titer blue (Promega), wound closure by CytoSelectTM Wound Healing Assay Kit (Cell Biolabs, Inc., San Diego, USA). All conditions were performed in three independent, controlled experiments. […] Microscopic imaging of wound closure was analyzed using “Image J” software. […] Apart from microscopic observations, data was analyzed for the determination of total surface area of the defined wound area using “Image J” software. Surface area of the migrated cells into the wound area was calculated by subtracting surface area after 24 hour from total surface area of the wound at “0” hour. […]

As for `COc1cc(/C=C/c2ccc(O)cc2)cc(OC)c1` [pterostilbene, 3,5-dimethoxy-4′-hydroxy-trans-stilbene], the “half life t1/2” value in data set [1] (in blood) is reported as “about 105 minutes”. Also, in data set [1] (in vivo, po), the oral bioavailability entry is reported as “orally bioavailable”.

Take `NC(=O)c1ccc[n+]([C@@H]2O[C@H](CO)[C@@H](O)[C@H]2O)c1` [NR chloride, Nicotinamide Riboside chloride]: the “cyclobutane pyrimidine dimer (CPD) level vs. control” value is listed as −32% in the data set on A431 cell line (+1 mM, 1.2 μg/ml DNA control); −41% in the data set on A431 cell line (+1 mM, 2.1 μg/ml DNA control); −34% in the data set on A431 cell line (+5 mM, 1.2 μg/ml DNA control); −50% in the data set on A431 cell line (+5 mM, 2.1 μg/ml DNA control). The “reduction of levels of CPDs” value with A431 cell line (expected) is on record as “at least 10%”. For the same molecule, the percent cytoprotection is listed as −1% in data set [2] (0.04 mM, normal growth (10% FBS)); 2% in data set [2] (0.2 mM, growth synchronized (1% FBS)); 8% in data set [2] (0.2 mM, normal growth (10% FBS)); 15% in data set [2] (1 mM, growth synchronized (1% FBS)); 23% in data set [2] (1 mM, normal growth (10% FBS)); 38% in data set [2] (5 mM, growth synchronized (1% FBS)). In addition, the “reduction of oxidative damage-mediated cell death” value is recorded as “at least 10%” in data set [2] (expected) and 10-40% in data set [2] (summary over conditions, even in growth arrested condition). Further, the gap closure in the data set with NIH 3T3 fibroblasts (0.2 mM + 1% FBS) stood at 13%; in the data set on NIH 3T3 fibroblasts (1 mM + 1% FBS, 24 hour incubation), 46%.
